According to patent US20240238300A1, “TREATMENT METHODS FOR SUBJECTS WITH CANCER HAVING AN ABERRATION IN EGFR AND/OR HER2” (TAIHO PHARMACEUTICAL CO., LTD., priority 2021, published 2024):
Where two headings read alike, the source gives them in different places.

How the values were obtained:
[1] = plasma protein binding, equilibrium dialysis; type: in vitro ADME
Description: Plasma protein binding of Compound (1). Plasma protein binding of Compound (1) in mice, rats, dogs, monkeys, and humans was determined using the equilibrium dialysis method.

[2] = tested on: MCF10A_HER2/insYVMA cells; test: growth inhibitory effect in human cancer cell lines (GI50); type: cell-based; conditions: engineered to express HER2 A775_G776insYVMA
human BCRP [3] = target: T1, human BCRP (Homo sapiens, UniProt Q9UNQ0); conditions: not told
T1 sequence (Q9UNQ0 1-655): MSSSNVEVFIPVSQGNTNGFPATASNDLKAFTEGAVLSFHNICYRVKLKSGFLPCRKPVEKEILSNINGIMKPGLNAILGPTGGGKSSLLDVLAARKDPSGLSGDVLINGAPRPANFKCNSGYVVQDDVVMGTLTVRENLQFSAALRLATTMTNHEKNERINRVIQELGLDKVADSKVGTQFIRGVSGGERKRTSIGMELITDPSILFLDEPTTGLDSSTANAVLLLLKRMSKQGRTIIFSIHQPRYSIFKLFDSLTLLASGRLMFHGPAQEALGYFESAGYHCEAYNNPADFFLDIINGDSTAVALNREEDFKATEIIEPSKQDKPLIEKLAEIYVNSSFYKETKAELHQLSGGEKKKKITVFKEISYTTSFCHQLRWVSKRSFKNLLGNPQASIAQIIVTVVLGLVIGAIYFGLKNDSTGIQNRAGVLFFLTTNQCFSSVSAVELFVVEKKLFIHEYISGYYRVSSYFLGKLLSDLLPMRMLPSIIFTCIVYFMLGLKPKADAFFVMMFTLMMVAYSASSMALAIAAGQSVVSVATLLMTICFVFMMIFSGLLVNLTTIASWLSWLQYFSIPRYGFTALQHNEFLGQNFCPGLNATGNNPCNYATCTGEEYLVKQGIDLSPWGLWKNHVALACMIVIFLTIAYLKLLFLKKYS

BCRP = tested on: T2, BCRP; test: substrate susceptibility on human BCRP, bidirectional transcellular transport, BCRP/MDCK II cells; type: in vitro ADME; conditions: human, with Ko143 10 μmol/L; read-out: net flux ratio
T2 construct: expressed in transfected cells; host or cells: MDCK II (canine kidney) cells expressing human BCRP; parent MDCK II as control
Description: (§1) Substrate susceptibility of Compound (1) on human BCRP. Time-dependence of the bidirectional transcellular transport of 0.3, 0.5, 1, 3, and 30 μmol/L Compound (1) across human BCRP/Madin-Darby canine kidney II (MDCK II) cells and parent/MDCK II cells was analyzed.

human BCRP [4] = tested on: T3, human BCRP; test: as above; type: in vitro ADME; conditions: human
T3 construct: expressed in transfected cells; host or cells: MDCK II (canine kidney) cells expressing human BCRP; parent MDCK II as control
Description: as §1

[5] = pharmacokinetics after multiple oral administration for 7 days; type: in vivo, male nude mice; conditions: for AUC(0-t): male, nude, mouse, plasma, read-out: AUC0-24
Description: (§2) Compound (1) was orally administered. The concentrations of Compound (1) were quantified using LC-MS/MS for the PK studies. ^13C-labeled Compound (1) was used as an internal standard.
Pharmacokinetics in nude mice after multiple oral administration for 7 days. Plasma concentration profiles and PK parameters of Compound (1) on Day 7 were determined in male nude mice after once daily oral administrations for 7 days at doses of 6.25, 12.5, and 25 mg/kg (FIGS. 5A and 5B, and Table 5). The Cmax, AUClast, and AUC0-24 values increased in a dose-dependent manner.

A-431 cells = test: growth inhibitory effect in human cancer cell lines (GI50); type: cell-based; conditions: wild-type EGFR gene amplification
Description: (§3) Wild-type EGFR gene amplification without HER2 amplification has been observed in A-431 cells. HCC827 cells (lung cancer) have been reported as harboring an EGFR activating mutation (DelE746_A750). NCI-H1975 cells (lung cancer) have been reported as having activating and acquired EGFR resistance mutations (L858R and T790M).

HCC827 cells = test: as above; type: cell-based; conditions: lung cancer, EGFR DelE746_A750
Description: as §3

NCI-H1975 cells = test: as above; type: cell-based; conditions: lung cancer, EGFR L858R and T790M
Description: as §3

[6] = tested on: NCI-N87 xenografts relapsed from T-mab and P-mab; test: refractory T-mab/P-mab model Step II; type: in vivo; conditions: for RTV (mean ± SE): Day 15 to Day 1 (Step II); for BWC (mean ± SE): Day 15 vs Day 1 (Step II); for T/C: Step II Day 15, vs T-mab + P-mab group; for Number of Death / TV (mean ± SE): Step II Day 15
Description: Male nude mice (BALB/cAJcl-mu/mu) were implanted with NCI-N87 human gastric carcinoma (HER2 overexpressing); 1.0×10^7 cells in 100 μL of PBS were implanted subcutaneously per mouse.
The tumor volumes (TV, mm^3) and body weights of the mice were recorded.

[7] = pharmacokinetics after single oral administration; type: in vivo, male nude mice; conditions: plasma; for AUC(0-t): male, nude, mouse, read-out: AUC0-24
Description: as §2
Pharmacokinetics in nude mice after single oral administration. Plasma concentration profiles and PK parameters of Compound (1) were determined in male nude mice following a single oral administration at doses of 6.25, 12.5, and 25 mg/kg (FIGS. 4A and 4B, and Table 4). The Cmax, AUClast, and AUC0-24 values increased in a dose dependent manner.

[8] = Day 7, once daily oral 6.25 mg/kg for 7 days
[9] = Day 7, once daily oral 12.5 mg/kg for 7 days
[10] = Day 7, once daily oral 25 mg/kg for 7 days

Work on C=CC(=O)N1C[C@H](n2c(C#CC3CC3)c(C(=O)N[C@H](C)c3ccccc3)c3c(N)ncnc32)C[C@@H]1C [Compound (1), 7-((3R,5S)-1-acryloyl-5-methylpyrrolidin-3-yl)-4-amino-6-(cyclopropylethynyl)-N—((R)-1-phenylethyl)-7H-pyrrolo[2,3-d]pyrimidine-5-carboxamide] yielded a fraction unbound ([1]; dog, dogs, 0.2, 2, and 20 μmol/L) of 0.02 to 0.026, a fraction unbound ([1]; human, humans, 0.2, 2, and 20 μmol/L) of 0.004 to 0.006 and a fraction unbound ([1]; monkey, monkeys, 0.2, 2, and 20 μmol/L) of 0.015 to 0.02. For the same compound, the fraction unbound ([1]; mouse, mice, 0.2, 2, and 20 μmol/L) was 0.005 to 0.012, the fraction unbound ([1]; rat, rats, 0.2, 2, and 20 μmol/L) was 0.011 to 0.027 and the GI50 [2] was 23.3 ± 1.4 nM. The “net flux ratio of [^3H]prazosin” value (human BCRP [3]; 0.01 μmol/L) was 4.6±0.4, the “net flux ratio of [^3H]prazosin” value (human BCRP [3]; 0.1 μmol/L) was 4.0±0.3 and the “net flux ratio of [^3H]prazosin” value (human BCRP [3]; 0.5 μmol/L) was 2.7±0.2. For the same compound, the “net flux ratio of [^3H]prazosin” value (human BCRP [3]; 1 μmol/L) was 1.8±0.2, the “net flux ratio of [^3H]prazosin” value (human BCRP [3]; 5 μmol/L) was 1.3±0.2 and the “net flux ratio of [^3H]prazosin” value (human BCRP [3]; 10 μmol/L) was 1.1±0.1. The efflux ratio at 2 h (BCRP) was 2 ± 0.5, the efflux ratio at 3 h (BCRP) was 1.4 ± 0.2 and the efflux ratio at 2 h, 0.5 μmol/L (human BCRP [4]; with Ko143 10 μmol/L, read-out: net flux ratio) was 1.2 ± 0.3. For the same compound, the efflux ratio at 4 h, 0.3 μmol/L (human BCRP [4]; with Ko143 (concentration not stated for this arm), read-out: net flux ratio) was 1.1 ± 0.2, the efflux ratio at 0.3 μmol/L (human BCRP [4]; 0.3 μmol/L Compound (1), 3 and 4 hours, read-out: flux ratios in parent and human BCRP/MDCK II cells) was over 2 and the AUClast [5, 8] was 972 ± 239 ng·h/mL. For the same compound, the Cmax [5, 8] was 1170 ± 300 ng/mL, the Tmax [5, 8] was 15 ± 0 min and the AUC0-24 [5, 9] was 2830 ± 400 ng·h/mL. For the same compound, the AUClast [5, 9] was 2800 ± 460 ng·h/mL, the Cmax [5, 9] was 2040 ± 230 ng/mL and the Tmax [5, 9] was 19.8 ± 8.4 min. The AUClast [5, 10] was 6180 ± 310 ng·h/mL, the Cmax [5, 10] was 3710 ± 360 ng/mL and the Tmax [5, 10] was 25.2 ± 8.4 min. It also gave an AUC(0-t) [5, 8] of 1030 ± 280 ng·h/mL, an AUC(0-t) [5, 10] of 6400 ± 430 ng·h/mL and a GI50 (A-431 cells) of 8.64 ± 1.07 nM. For the same compound, the GI50 (HCC827 cells) was 2.13 ± 0.61 nM, the GI50 (NCI-H1975 cells) was 37.5 ± 20.4 nM and the “body weight loss (tolerance)” value ([6]; 12.5 and 25 mg/kg/day) was “did not cause severe body weight loss”. For the same compound, the “RTV (mean ± SE)” value ([6]; 12.5 mg/kg/day po Days 1-14) was 1.2, the “RTV (mean ± SE)” value ([6]; 25 mg/kg/day po Days 1-14) was 1.0 and the “BWC (mean ± SE)” value ([6]; 12.5 mg/kg/day po Days 1-14) was −1.2%. The “BWC (mean ± SE)” value ([6]; 25 mg/kg/day po Days 1-14) was −4.4%, the T/C ([6]; 12.5 mg/kg/day po Days 1-14) was 52.5% and the T/C ([6]; 25 mg/kg/day po Days 1-14) was 46.1%. For the same compound, the “Number of Death” value ([6]; 12.5 mg/kg/day po Days 1-14) was 0, the “TV (mean ± SE)” value ([6]; 12.5 mg/kg/day po Days 1-14) was 412.5 mm^3 and the “Number of Death” value ([6]; 25 mg/kg/day po Days 1-14) was 0. For the same compound, the “TV (mean ± SE)” value ([6]; 25 mg/kg/day po Days 1-14) was 362.4 mm^3, the AUC(0-t) ([7]; single oral 6.25 mg/kg) was 822 ± 208 ng·h/mL and the AUC(0-t) ([7]; single oral 25 mg/kg) was 5230 ± 620 ng·h/mL. It also gave an AUClast ([7]; single oral 6.25 mg/kg) of 795 ± 229 ng·h/mL, a Cmax ([7]; single oral 6.25 mg/kg) of 601 ± 111 ng/mL and a Tmax ([7]; single oral 6.25 mg/kg) of 19.8 ± 8.4 min. For the same compound, the AUC0-24 ([7]; single oral 12.5 mg/kg) was 2010 ± 230 ng·h/mL, the AUClast ([7]; single oral 12.5 mg/kg) was 2010 ± 230 ng·h/mL and the Cmax ([7]; single oral 12.5 mg/kg) was 1590 ± 220 ng/mL. For the same compound, the Tmax ([7]; single oral 12.5 mg/kg) was 15 ± 0 min, the AUClast ([7]; single oral 25 mg/kg) was 5080 ± 820 ng·h/mL and the Cmax ([7]; single oral 25 mg/kg) was 3580 ± 190 ng/mL. The Tmax ([7]; single oral 25 mg/kg) was 15 ± 0 min.
